Measurements from patent publication US20260022142A1, “MACROCYCLIC IMMUNOMODULATORS” (Bristol-Myers Squibb Company, priority 2022, published 2026).
Bridge positions count the residues as written; N and C are the ends. Square brackets hold non-standard residues; d marks the D form. Peptide text beside a SMILES is read from it. * marks the point of attachment. Phe(4-CONH2) = NC(=O)c1ccc(C[C@H](N)C(=O)O)cc1; Phe(4-COOH) = N[C@@H](Cc1ccc(C(=O)O)cc1)C(=O)O; Bip = N[C@@H](Cc1ccc(-c2ccccc2)cc1)C(=O)O; Phe(3-Me) = Cc1cccc(C[C@H](N)C(=O)O)c1; 3Pal = N[C@@H](Cc1cccnc1)C(=O)O; 4Pal = N[C@@H](Cc1ccncc1)C(=O)O; Cha = N[C@@H](CC1CCCCC1)C(=O)O; Cit = NC(=O)NCCC[C@H](N)C(=O)O; Carboxymethyl = O=C(O)C*; Orn = NCCC[C@H](N)C(=O)O; Aun = NCCCCCCCCCCC(=O)O; Dab = NCC[C@H](N)C(=O)O

The molecules below were run against T1, PD-1/PD-L1 interaction (PE-labeled human PD-L1-Ig binding to Jurkat cell line over-expressing human PD-1) (Homo sapiens, UniProt Q15116) (assay: Jurkat-PD-1 Cell Binding High-Content Screening Assay (CBA)). Conditions: Jurkat cell line over-expressing human PD-1; PE-labeled PD-L1-Ig 20 nM final; read-out: Jurkat hPD1-PDL1 IC50.
T1 construct: expressed in transfected cells; host or cells: Jurkat
T1 sequence (Q15116 25-288): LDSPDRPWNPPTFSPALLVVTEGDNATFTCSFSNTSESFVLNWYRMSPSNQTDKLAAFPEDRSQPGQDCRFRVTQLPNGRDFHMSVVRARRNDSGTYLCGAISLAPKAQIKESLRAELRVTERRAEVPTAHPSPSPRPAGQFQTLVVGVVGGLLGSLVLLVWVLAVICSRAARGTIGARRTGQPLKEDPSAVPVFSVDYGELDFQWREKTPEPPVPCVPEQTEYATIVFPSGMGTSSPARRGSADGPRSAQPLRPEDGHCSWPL
Type: cell-based
Outline: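 Jurkat cells stably over-expressing human PD-1 were seeded in DMEM with 10% fetal calf serum and pre-incubated with compound for 2 h at 37° C. PE-labeled human PD-L1-Ig was then added at 20 nM final for 1 hour, after which cells were fixed with paraformaldehyde, Hoechst-stained and imaged by high-content microscopy.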
In the case of `Cc1cccc(C[C@@H]2NC(=O)[C@H](CC(=O)O)NC(=O)[C@H](Cc3ccc(OCC(=O)O)cc3)NC(=O)[C@H](CCCN)NC(=O)CSC[C@@H](C(=O)N[C@@H](CCN)C(=O)NCCCCCCCCCCC(=O)O)NC(=O)[C@H]([C@@H](C)O)NC(=O)[C@H](C(C)C)NC(=O)[C@H](CC3CCCCC3)NC(=O)[C@H](CCN)NC(=O)[C@@H](CC(C)C)NC(=O)[C@H](CCCN)NC(=O)[C@H](CCCNC(N)=O)NC(=O)[C@H](Cc3ccc(-c4ccccc4)cc3)NC(=O)[C@H](C(C)C)NC2=O)c1` [Compound 2822] ({CH2CO}-[Orn]Y(Carboxymethyl)D[Phe(3-Me)]V[Bip][Cit][Orn][dL][Dab][Cha]VTC[Dab][Aun]-OH; thioether N-14), the IC50 is reported as 0.0219 µM.
`Cc1cccc(C[C@@H]2NC(=O)[C@H](CC(=O)O)NC(=O)[C@H](Cc3ccc(OCC(=O)O)cc3)NC(=O)[C@H](CCCCN)NC(=O)CSC[C@@H](C(=O)N[C@@H](CCN)C(=O)NCCCCCCCCCCC(=O)O)NC(=O)[C@H]([C@@H](C)O)NC(=O)[C@H](C(C)C)NC(=O)[C@H](CC3CCCCC3)NC(=O)[C@H](CCN)NC(=O)[C@@H](CC(C)C)NC(=O)[C@H](CCCN)NC(=O)[C@H](CCCNC(N)=O)NC(=O)[C@H](Cc3ccc(-c4ccccc4)cc3)NC(=O)[C@H](C(C)C)NC2=O)c1` [Compound 2823] ({CH2CO}-KY(Carboxymethyl)D[Phe(3-Me)]V[Bip][Cit][Orn][dL][Dab][Cha]VTC[Dab][Aun]-OH; thioether N-14) was tested, and the IC50 was 0.0164 µM.
Work on `Cc1cccc(C[C@@H]2NC(=O)[C@H](CC(=O)O)NC(=O)[C@H](Cc3ccc(OCC(=O)O)cc3)NC(=O)[C@H](CCCNC(N)=O)NC(=O)CSC[C@@H](C(=O)N[C@@H](CCN)C(=O)NCCCCCCCCCCC(=O)O)NC(=O)[C@H]([C@@H](C)O)NC(=O)[C@H](C(C)C)NC(=O)[C@H](CC3CCCCC3)NC(=O)[C@H](CCN)NC(=O)[C@@H](CC(C)C)NC(=O)[C@H](CCCN)NC(=O)[C@H](CCCNC(N)=O)NC(=O)[C@H](Cc3ccc(-c4ccccc4)cc3)NC(=O)[C@H](C(C)C)NC2=O)c1` [Compound 2824] ({CH2CO}-[Cit]Y(Carboxymethyl)D[Phe(3-Me)]V[Bip][Cit][Orn][dL][Dab][Cha]VTC[Dab][Aun]-OH; thioether N-14) yielded an IC50 of 0.0255 µM.
In the case of `Cc1cccc(C[C@@H]2NC(=O)[C@H](CC(=O)O)NC(=O)[C@H](Cc3ccc(OCC(=O)O)cc3)NC(=O)[C@H](Cc3ccccc3)NC(=O)CSC[C@@H](C(=O)N[C@@H](CCN)C(=O)NCCCCCCCCCCC(=O)O)NC(=O)[C@H]([C@@H](C)O)NC(=O)[C@H](C(C)C)NC(=O)[C@H](CC3CCCCC3)NC(=O)[C@H](CCN)NC(=O)[C@@H](CC(C)C)NC(=O)[C@H](CCCN)NC(=O)[C@H](CCCNC(N)=O)NC(=O)[C@H](Cc3ccc(-c4ccccc4)cc3)NC(=O)[C@H](C(C)C)NC2=O)c1` [Compound 2825] ({CH2CO}-FY(Carboxymethyl)D[Phe(3-Me)]V[Bip][Cit][Orn][dL][Dab][Cha]VTC[Dab][Aun]-OH; thioether N-14), the IC50 is reported as 0.201 µM.
Molecule `Cc1cccc(C[C@@H]2NC(=O)[C@H](CC(=O)O)NC(=O)[C@H](Cc3ccc(OCC(=O)O)cc3)NC(=O)[C@H](Cc3ccc(O)cc3)NC(=O)CSC[C@@H](C(=O)N[C@@H](CCN)C(=O)NCCCCCCCCCCC(=O)O)NC(=O)[C@H]([C@@H](C)O)NC(=O)[C@H](C(C)C)NC(=O)[C@H](CC3CCCCC3)NC(=O)[C@H](CCN)NC(=O)[C@@H](CC(C)C)NC(=O)[C@H](CCCN)NC(=O)[C@H](CCCNC(N)=O)NC(=O)[C@H](Cc3ccc(-c4ccccc4)cc3)NC(=O)[C@H](C(C)C)NC2=O)c1` [Compound 2826] ({CH2CO}-YY(Carboxymethyl)D[Phe(3-Me)]V[Bip][Cit][Orn][dL][Dab][Cha]VTC[Dab][Aun]-OH; thioether N-14) has an IC50 of 0.0622 µM.
`Cc1cccc(C[C@@H]2NC(=O)[C@H](CC(=O)O)NC(=O)[C@H](Cc3ccc(OCC(=O)O)cc3)NC(=O)[C@H](Cc3ccc(C(N)=O)cc3)NC(=O)CSC[C@@H](C(=O)N[C@@H](CCN)C(=O)NCCCCCCCCCCC(=O)O)NC(=O)[C@H]([C@@H](C)O)NC(=O)[C@H](C(C)C)NC(=O)[C@H](CC3CCCCC3)NC(=O)[C@H](CCN)NC(=O)[C@@H](CC(C)C)NC(=O)[C@H](CCCN)NC(=O)[C@H](CCCNC(N)=O)NC(=O)[C@H](Cc3ccc(-c4ccccc4)cc3)NC(=O)[C@H](C(C)C)NC2=O)c1` [Compound 2827] ({CH2CO}-[Phe(4-CONH2)]Y(Carboxymethyl)D[Phe(3-Me)]V[Bip][Cit][Orn][dL][Dab][Cha]VTC[Dab][Aun]-OH; thioether N-14) showed an IC50 of 0.0131 µM.
Work on `Cc1cccc(C[C@@H]2NC(=O)[C@H](CC(=O)O)NC(=O)[C@H](Cc3ccc(OCC(=O)O)cc3)NC(=O)[C@H](Cc3ccc(OCC(=O)O)cc3)NC(=O)CSC[C@@H](C(=O)N[C@@H](CCN)C(=O)NCCCCCCCCCCC(=O)O)NC(=O)[C@H]([C@@H](C)O)NC(=O)[C@H](C(C)C)NC(=O)[C@H](CC3CCCCC3)NC(=O)[C@H](CCN)NC(=O)[C@@H](CC(C)C)NC(=O)[C@H](CCCN)NC(=O)[C@H](CCCNC(N)=O)NC(=O)[C@H](Cc3ccc(-c4ccccc4)cc3)NC(=O)[C@H](C(C)C)NC2=O)c1` [Compound 2828] ({CH2CO}-Y(Carboxymethyl)Y(Carboxymethyl)D[Phe(3-Me)]V[Bip][Cit][Orn][dL][Dab][Cha]VTC[Dab][Aun]-OH; thioether N-14) yielded an IC50 of 0.0774 µM.
`Cc1cccc(C[C@@H]2NC(=O)[C@H](CC(=O)O)NC(=O)[C@H](Cc3ccc(OCC(=O)O)cc3)NC(=O)[C@H](Cc3ccc(C(=O)O)cc3)NC(=O)CSC[C@@H](C(=O)N[C@@H](CCN)C(=O)NCCCCCCCCCCC(=O)O)NC(=O)[C@H]([C@@H](C)O)NC(=O)[C@H](C(C)C)NC(=O)[C@H](CC3CCCCC3)NC(=O)[C@H](CCN)NC(=O)[C@@H](CC(C)C)NC(=O)[C@H](CCCN)NC(=O)[C@H](CCCNC(N)=O)NC(=O)[C@H](Cc3ccc(-c4ccccc4)cc3)NC(=O)[C@H](C(C)C)NC2=O)c1` [Compound 2829] ({CH2CO}-[Phe(4-COOH)]Y(Carboxymethyl)D[Phe(3-Me)]V[Bip][Cit][Orn][dL][Dab][Cha]VTC[Dab][Aun]-OH; thioether N-14) gave an IC50 of 0.162 µM.
For `Cc1cccc(C[C@@H]2NC(=O)[C@H](CC(=O)O)NC(=O)[C@H](Cc3ccc(OCC(=O)O)cc3)NC(=O)[C@H](CCC(N)=O)NC(=O)CSC[C@@H](C(=O)N[C@@H](CCN)C(=O)NCCCCCCCCCCC(=O)O)NC(=O)[C@H]([C@@H](C)O)NC(=O)[C@H](C(C)C)NC(=O)[C@H](CC3CCCCC3)NC(=O)[C@H](CCN)NC(=O)[C@@H](CC(C)C)NC(=O)[C@H](CCCN)NC(=O)[C@H](CCCNC(N)=O)NC(=O)[C@H](Cc3ccc(-c4ccccc4)cc3)NC(=O)[C@H](C(C)C)NC2=O)c1` [Compound 2830] ({CH2CO}-QY(Carboxymethyl)D[Phe(3-Me)]V[Bip][Cit][Orn][dL][Dab][Cha]VTC[Dab][Aun]-OH; thioether N-14), the IC50 was 0.026 µM.
For `Cc1cccc(C[C@@H]2NC(=O)[C@H](CC(=O)O)NC(=O)[C@H](Cc3ccc(OCC(=O)O)cc3)NC(=O)[C@H](Cc3ccncc3)NC(=O)CSC[C@@H](C(=O)N[C@@H](CCN)C(=O)NCCCCCCCCCCC(=O)O)NC(=O)[C@H]([C@@H](C)O)NC(=O)[C@H](C(C)C)NC(=O)[C@H](CC3CCCCC3)NC(=O)[C@H](CCN)NC(=O)[C@@H](CC(C)C)NC(=O)[C@H](CCCN)NC(=O)[C@H](CCCNC(N)=O)NC(=O)[C@H](Cc3ccc(-c4ccccc4)cc3)NC(=O)[C@H](C(C)C)NC2=O)c1` [Compound 2831] ({CH2CO}-[4Pal]Y(Carboxymethyl)D[Phe(3-Me)]V[Bip][Cit][Orn][dL][Dab][Cha]VTC[Dab][Aun]-OH; thioether N-14), the IC50 was 0.0432 µM.
In the case of `Cc1cccc(C[C@@H]2NC(=O)[C@H](CC(=O)O)NC(=O)[C@H](Cc3ccc(OCC(=O)O)cc3)NC(=O)[C@H](Cc3cccnc3)NC(=O)CSC[C@@H](C(=O)N[C@@H](CCN)C(=O)NCCCCCCCCCCC(=O)O)NC(=O)[C@H]([C@@H](C)O)NC(=O)[C@H](C(C)C)NC(=O)[C@H](CC3CCCCC3)NC(=O)[C@H](CCN)NC(=O)[C@@H](CC(C)C)NC(=O)[C@H](CCCN)NC(=O)[C@H](CCCNC(N)=O)NC(=O)[C@H](Cc3ccc(-c4ccccc4)cc3)NC(=O)[C@H](C(C)C)NC2=O)c1` [Compound 2832] ({CH2CO}-[3Pal]Y(Carboxymethyl)D[Phe(3-Me)]V[Bip][Cit][Orn][dL][Dab][Cha]VTC[Dab][Aun]-OH; thioether N-14), the IC50 is reported as 0.048 µM.
With `Cc1cccc(C[C@@H]2NC(=O)[C@H](CC(=O)O)NC(=O)[C@H](Cc3ccc(OCC(=O)O)cc3)NC(=O)[C@H](CCCNC(=N)N)NC(=O)CSC[C@@H](C(=O)N[C@@H](CCN)C(=O)NCCCCCCCCCCC(=O)O)NC(=O)[C@H]([C@@H](C)O)NC(=O)[C@H](C(C)C)NC(=O)[C@H](CC3CCCCC3)NC(=O)[C@H](CCN)NC(=O)[C@@H](CC(C)C)NC(=O)[C@H](CCCN)NC(=O)[C@H](CCCNC(N)=O)NC(=O)[C@H](Cc3ccc(-c4ccccc4)cc3)NC(=O)[C@H](Cc3ccc(O)cc3)NC2=O)c1` [Compound 2833] ({CH2CO}-RY(Carboxymethyl)D[Phe(3-Me)]Y[Bip][Cit][Orn][dL][Dab][Cha]VTC[Dab][Aun]-OH; thioether N-14) the IC50 was 0.0052 µM.
Molecule `CC(C)C[C@H]1NC(=O)[C@H](CCCN)NC(=O)[C@H](CCCNC(N)=O)NC(=O)[C@H](Cc2ccc(-c3ccccc3)cc2)NC(=O)[C@H](Cc2ccc(O)cc2)NC(=O)[C@H](Cc2c[nH]c3ccccc23)NC(=O)[C@H](CC(=O)O)NC(=O)[C@H](Cc2ccc(OCC(=O)O)cc2)NC(=O)[C@H](CCCNC(=N)N)NC(=O)CSC[C@@H](C(=O)N[C@@H](CCN)C(=O)NCCCCCCCCCCC(=O)O)NC(=O)[C@H]([C@@H](C)O)NC(=O)[C@H](C(C)C)NC(=O)[C@H](CC2CCCCC2)NC(=O)[C@H](CCN)NC1=O` [Compound 2834] ({CH2CO}-RY(Carboxymethyl)DWY[Bip][Cit][Orn][dL][Dab][Cha]VTC[Dab][Aun]-OH; thioether N-14) has an IC50 of 0.0202 µM.
